These are literature values, as cited in US20170136076A1, “THERAPEUTIC COMPOSITIONS COMPRISING HERBAL EXTRACTS AND ESSENTIAL OILS FOR SMOKING AND VAPORIZATION” (NISARGA BIOTECH PRIVATE LIMITED, priority 2015, published 2017).

The conditions of series [1]: after 90 minutes; condenses on the surface of the vaporizer or the balloon.
The conditions of series [2]: pure THC in the vaporizer.

For the molecule `CCCCCc1cc(O)c2c(c1)OC(C)(C)[C@@H]1CCC(C)=C[C@@H]21` [THC, tetrahydrocannabinol], the “loss of THC from stored vapor” value in series [1] is recorded as “exceed 50%”. Besides, the “degradation products (delta-8-THC, cannabinol, unknown compounds) detected by HPLC” value in series [2] is on record as “no degradation products”.
